pIC50: −log10 of the molar value. Counter-ions that a name gives are not always drawn.
target: T1, CDK12 (Homo sapiens, UniProt Q9NYV4); assay: Radiometric protein kinase assay (33PanQinase), assay condition 1, thiol-free conditions; assay type: biochemical; details: thiol-free conditions (1 mM TCEP), ATP at apparent Km
T1 construct: ProQinase (named as the party running the assay)
Experimental: Example 2 —Assay condition 1 (thiol-free conditions)
The IC50 profile of compounds was determined using protein kinase in a customized, thiol free assay. IC50 values were measured by testing 10 concentrations (1×10^−05 M to 3×10^−10 M) of each test compound in singlicate against each kinase of interest. Prior to testing, the 1×10^−03M stock solutions in column 2 of the master plates were subjected to a serial, semi-logarithmic dilution using 100% DMSO as a solvent. […] Column 1 and 7 were filled with 100% DMSO as controls. Subsequently, 2×10 microliter from each well of the serial diluted copy plates were aliquoted with a 96 channel pipettor into two identical sets of “compound dilution plates”. All plates were barcoded for automated identification and tracking purposes. IC50 values were measured by testing 10 concentrations (1×10^−05 M to 3×10^−10 M) of each compound in singlicate. All compounds were stored as powder until being solubilized in DMSO. Solubilized compounds were stored as 1×10^−02 M/100% DMSO stock solutions. Prior to the assay process, 90 microliters of H2O were added to each well of a set of compound dilution plates. To minimize potential precipitation, the H2O was added to each plate only a few minutes before the transfer of the compound solutions into the assay plates. Each plate was shaken thoroughly, resulting in compound dilution plates with a final of 10% DMSO. For each assay, 5 microliters of solution from each well of the compound dilution plates/10% DMSO were transferred into the assay plate. The final volume of the assay was 50 μl. All compounds were tested at 10 final assay concentrations in the range from 1×10^−05 M to 3×10^−10 M, in singlicate. The final DMSO concentration in the reaction cocktails was 1% in all cases. A radiometric protein kinase assay (33PanQinase® Activity Assay) was used for measuring the kinase activity of the protein kinase. All kinase assays were performed in 96-well FlashPlates™ from PerkinElmer (Boston, Mass., USA) in a 50 microliter reaction volume. The reaction cocktail was pipetted in four steps in the following order: 20 microliter of assay buffer (standard buffer) 5 microliter of ATP solution (in H2O) 5 microliter of test compound (in 10% DMSO) 20 microliter enzyme/subtrate mix. Each assay for the protein kinase contained 70 mM HEPES-NaOH pH 7.5, 3 mM MgCl2, 3 mM MnCl2, 3 microM Na-orthovanadate, 1 mM TCEP, 50 μg/ml PEG20000, ATP (corresponding to the apparent ATP-Km of the kinase, see Table A), [gamma-33P]-ATP (approx. 6×10×E5 cpm per well), with the protein kinase and relevant substrate being used in pre-determined amounts, depending on the kinase in question. For all experiments labeled as “Thiol-free”, all glutathione was exchanged from protein preparations so as to be removed from the assay and final buffer conditions contained no thiol- containing reagents. This was done so there would be no interference with the key cysteines in the proteins of interest.
For data analysis, the median value of the counts in column 1 (n=8) of each assay plate was defined as “low control”. This value reflects unspecific binding of radioactivity to the plate in the absence of a protein kinase but in the presence of the substrate. The median value of the counts in column 7 of each assay plate (n=8) was taken as the “high control”, i.e. full activity in the absence of any inhibitor. The difference between high and low control was taken as 100% activity. As part of the data evaluation the low control value from a particular plate was subtracted from the high control value as well as from all 80 “compound values” of the corresponding plate. The residual activity (in %) for each well of a particular plate was calculated by using the following formula:
Res. Activity (%)=100×[(cpm of compound−low control)/(high control−low control)] […]

T1 sequence (Q9NYV4 whole entry): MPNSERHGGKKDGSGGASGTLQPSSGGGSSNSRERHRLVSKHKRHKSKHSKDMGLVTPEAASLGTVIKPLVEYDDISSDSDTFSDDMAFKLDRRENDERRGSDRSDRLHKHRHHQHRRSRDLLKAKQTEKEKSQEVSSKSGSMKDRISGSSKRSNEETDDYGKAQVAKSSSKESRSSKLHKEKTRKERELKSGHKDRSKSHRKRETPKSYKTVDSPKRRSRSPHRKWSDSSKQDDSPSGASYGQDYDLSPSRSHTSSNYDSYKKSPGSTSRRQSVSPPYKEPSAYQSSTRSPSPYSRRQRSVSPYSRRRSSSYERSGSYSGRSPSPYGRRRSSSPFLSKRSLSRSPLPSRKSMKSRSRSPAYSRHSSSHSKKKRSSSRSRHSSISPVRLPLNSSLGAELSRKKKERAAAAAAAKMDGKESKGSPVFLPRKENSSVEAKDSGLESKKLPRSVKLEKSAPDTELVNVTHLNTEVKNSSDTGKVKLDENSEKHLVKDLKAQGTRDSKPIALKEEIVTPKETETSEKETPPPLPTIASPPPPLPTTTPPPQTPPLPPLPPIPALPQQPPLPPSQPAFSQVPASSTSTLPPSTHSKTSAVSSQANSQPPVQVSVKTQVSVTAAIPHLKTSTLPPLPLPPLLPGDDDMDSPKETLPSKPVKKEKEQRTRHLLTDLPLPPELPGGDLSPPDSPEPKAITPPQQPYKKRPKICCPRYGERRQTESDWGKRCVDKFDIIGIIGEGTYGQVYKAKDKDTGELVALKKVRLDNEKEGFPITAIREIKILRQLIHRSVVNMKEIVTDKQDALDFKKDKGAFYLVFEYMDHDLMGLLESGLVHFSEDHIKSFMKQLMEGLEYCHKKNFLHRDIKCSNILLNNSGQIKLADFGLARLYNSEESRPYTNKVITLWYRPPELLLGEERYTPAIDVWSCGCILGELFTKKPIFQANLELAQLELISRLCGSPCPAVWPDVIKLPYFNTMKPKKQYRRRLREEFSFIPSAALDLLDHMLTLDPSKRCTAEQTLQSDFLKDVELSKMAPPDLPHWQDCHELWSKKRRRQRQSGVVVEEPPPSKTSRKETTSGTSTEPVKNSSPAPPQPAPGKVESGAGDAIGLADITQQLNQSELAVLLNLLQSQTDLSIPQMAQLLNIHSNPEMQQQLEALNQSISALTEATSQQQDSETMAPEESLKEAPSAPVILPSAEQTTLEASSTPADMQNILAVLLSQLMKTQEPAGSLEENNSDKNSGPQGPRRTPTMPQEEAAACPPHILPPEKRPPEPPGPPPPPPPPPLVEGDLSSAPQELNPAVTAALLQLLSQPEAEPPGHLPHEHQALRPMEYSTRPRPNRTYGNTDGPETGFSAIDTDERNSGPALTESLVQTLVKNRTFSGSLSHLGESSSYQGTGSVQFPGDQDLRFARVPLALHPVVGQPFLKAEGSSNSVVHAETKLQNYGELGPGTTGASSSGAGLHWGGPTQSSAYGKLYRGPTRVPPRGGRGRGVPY
T1 sequence (O75909 whole entry partner): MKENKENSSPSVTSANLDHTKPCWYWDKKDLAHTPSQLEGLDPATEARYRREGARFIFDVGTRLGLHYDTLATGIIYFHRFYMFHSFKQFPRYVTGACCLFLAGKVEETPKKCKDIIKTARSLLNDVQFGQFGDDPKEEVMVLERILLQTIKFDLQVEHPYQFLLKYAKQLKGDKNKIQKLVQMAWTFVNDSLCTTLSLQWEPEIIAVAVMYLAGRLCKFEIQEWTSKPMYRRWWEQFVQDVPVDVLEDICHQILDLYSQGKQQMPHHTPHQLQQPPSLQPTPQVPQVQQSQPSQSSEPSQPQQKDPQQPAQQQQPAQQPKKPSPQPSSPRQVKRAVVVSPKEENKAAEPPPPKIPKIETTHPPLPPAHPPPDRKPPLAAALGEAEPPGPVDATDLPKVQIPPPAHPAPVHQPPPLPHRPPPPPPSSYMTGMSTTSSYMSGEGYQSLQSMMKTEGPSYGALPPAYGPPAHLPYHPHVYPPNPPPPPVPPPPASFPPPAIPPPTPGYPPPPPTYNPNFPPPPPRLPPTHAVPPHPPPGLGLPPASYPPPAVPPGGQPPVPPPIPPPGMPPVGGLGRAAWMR

pIC50	Compound
≥ 7.00	C=CC(=O)Nc1ccc2c(N3CC[C@@H](Nc4ncc(C#N)cn4)C3)nc(N)nc2c1 [Example 31, (R)—N-(2-amino-4-(3-((5-cyanopyrimidin-2-yl)amino)pyrrolidin-1-yl)quinazolin-7-yl)acrylamide]
≥ 7.00	C=CC(=O)Nc1ccc2c(N3CC[C@@H](Nc4cc5c(cn4)cnn5CC)C3)ncnc2c1 [Example 34, (R)—N-(4-(3-((1-ethyl-1H-pyrazolo[4,3-c]pyridin-6-yl)amino)pyrrolidin-1-yl)quinazolin-7-yl)acrylamide]
≥ 7.00	C=CC(=O)N(C)c1ccc2c(N3CC[C@@H](Nc4ncc(Br)cn4)C3)nc(N3CCN(C)CC3)nc2c1 [Example 43, (R)—N-(4-(3-((5-bromopyrimidin-2-yl)amino)pyrrolidin-1-yl)-2-(4-methylpiperazin-1-yl)quinazolin-7-yl)-N-methylacrylamide]
≥ 7.00	C#Cc1cnc(N[C@@H]2CCN(c3nccc4cc(N(C)C(=O)C=C)ccc34)C2)nc1 [Example 44, (R)—N-(1-(3-((5-ethynylpyrimidin-2-yl)amino)pyrrolidin-1-yl)isoquinolin-6-yl)-N-methylacrylamide]
≥ 7.00	C=CC(=O)Nc1ccc2c(N3CC[C@@H](Nc4ncc(C#N)cn4)C3)nnc(N3CCC3)c2c1 [Example 45, (R)—N-(4-(azetidin-1-yl)-1-(3-((5-cyanopyrimidin-2-yl)amino)pyrrolidin-1-yl)phthalazin-6-yl)acrylamide formate]
≥ 7.00	C#Cc1cnc(N[C@@H]2CCN(c3nccc4cc(NC(=O)C=C)ccc34)C2)nn1 [Example 47, (R)—N-(1-(3-((6-ethynyl-1,2,4-triazin-3-yl)amino)pyrrolidin-1-yl)isoquinolin-6-yl)acrylamide]
≥ 7.00	C#Cc1cnc(N[C@@H]2CCN(c3nccc4cc(NC(=O)C=C)ccc34)C2)nc1 [Example 48, (R)—N-(1-(3-((5-ethynylpyrimidin-2-yl)amino)pyrrolidin-1-yl)isoquinolin-6-yl)acrylamide]
≥ 7.00	C=CC(=O)Nc1ccc2c(N3CC[C@@H](Nc4ncc(C#N)cn4)C3)nncc2c1 [Example 49, (R)—N-(1-(3-((5-cyanopyrimidin-2-yl)amino)pyrrolidin-1-yl)phthalazin-6-yl)acrylamide]
≥ 7.00	C=CC(=O)Nc1ccc2c(N3CC[C@@H](Nc4ncc(Br)cn4)C3)nncc2c1 [Example 50, (R)—N-(1-(3-((5-bromopyrimidin-2-yl)amino)pyrrolidin-1-yl)phthalazin-6-yl)acrylamide]
≥ 7.00	C#Cc1cnc(N[C@@H]2CCN(c3nncc4cc(NC(=O)C=C)ccc34)C2)nc1 [Example 51, (R)—N-(1-(3-((5-ethynylpyrimidin-2-yl)amino)pyrrolidin-1-yl)phthalazin-6-yl)acrylamide formate]
≥ 7.00	C=CC(=O)Nc1ccc2c(N3CC[C@@H](Nc4ncc(Br)cn4)C3)nnc(N3CCC3)c2c1 [Example 52, (R)—N-(4-(azetidin-1-yl)-1-(3-((5-bromopyrimidin-2-yl)amino)pyrrolidin-1-yl)phthalazin-6-yl)acrylamide]
≥ 7.00	C#Cc1cnc(N[C@@H]2CCN(c3nnc(N4CCC4)c4cc(NC(=O)C=C)ccc34)C2)nn1 [Example 53]
≥ 7.00	C=CC(=O)Nc1ccc2c(N3CC[C@@H](Nc4ncc(C#N)cn4)C3)nnc(N3CC(C#N)C3)c2c1 [Example 54, (R)—N-(4-(3-cyanoazetidin-1-yl)-1-(3-((5-cyanopyrimidin-2-yl)amino)pyrrolidin-1-yl)phthalazin-6-yl)acrylamide]

target: T2, CDK12 wt/CycK (Homo sapiens, UniProt Q9NYV4); assay: Radiometric protein kinase assay (33PanQinase), assay condition 2, thiol containing conditions; assay type: biochemical; details: thiol containing conditions (1.2 mM DTT), ATP 0.3 μM
T2 construct: either as full-length or enzymatically active fragments
Experimental: Example 1—Assay condition 2 (thiol containing conditions)
Objective: The IC50 profile of test compounds was determined using protein kinases. IC50 values were measured by testing 10 concentrations (1×10^−04M, 3×10^−05M, 1×10^−05M, 3×10^−06M, 1×10^−06M, 3×10^−07M, 1×10^−07M, 3×10^−08M, 1×10^−08M, and 3×10^−09M) of each compound in singlicate.
Test compounds: The compounds were provided as pre-weighed powders in vials. The compounds were dissolved to 1×10^−02M by adding DMSO. 100 μl of each of the resulting stock solutions were transferred into column 2 of four 96 well “master plates”
Prior to testing, the 1×10^−02M stock solutions in column 2 of the master plates were subjected to a serial, semi-logarithmic dilution using 100% DMSO as a solvent. […] Column 1 and 7 were filled with 100% DMSO as controls. Subsequently, 2×10 μl from each well of the serial diluted copy plates were aliquoted with a 96 channel pipettor into two identical sets of “compound dilution plates”.
In the process, 90 μl H2O were added to each well of a set of compound dilution plates. To minimize potential precipitation, the H2O was added to each plate only a few minutes before the transfer of the compound solutions into the assay plates. Each plate was shaken thoroughly, resulting in a “compound dilution plate/ 10% DMSO”.
For the assays, 5 μl solution from each well of the compound dilution plates/10% DMSO were transferred into the assay plates. The final volume of the assay was 50 μl. All compounds were tested at 10 final assay concentrations in the range from 1×10^−04M to 3×10^−09M, in singlicate. The final DMSO concentration in the reaction cocktails was 1% in all cases.
Recombinant protein kinases: All protein kinases were expressed in Sf9 insect cells or in E.coli as recombinant GST-fusion proteins or His-tagged proteins, either as full-length or enzymatically active fragments. All kinases were produced from human cDNAs and purified by either GSH-affinity chromatography or immobilized metal. Affinity tags were removed from a number of kinases during purification. The purity of the protein kinases was examined by SDS-PAGE/Coomassie staining, the identity was checked by mass spectroscopy.
Protein kinase assay: A radiometric protein kinase assay (^33PanQinase® Activity Assay) was used for measuring the kinase activity. All kinase assays were performed in 96-well FlashPlates™ from PerkinElmer (Boston, MA, USA) in a 50 μl reaction volume. The reaction cocktail was pipetted in four steps in the following order: • 20 μl of assay buffer (standard buffer) • 5μl of ATP solution (in H2O) • 5μl of test compound (in 10% DMSO) • 20 μl enzyme/substrate mix
The assay for all protein kinases contained 70 mM HEPES-NaOH pH 7.5, 3 mM MgCl2, 3 mM MnCl2, 3 μM Na-orthovanadate, 1.2 mM DTT, 50 μg/ml PEG20000, ATP (variable concentrations, corresponding to the apparent ATP-K. of the respective kinase), [γ-^33P]-ATP (approx. 9×10^05cpm per well), protein kinase, and substrate.
The following amounts of enzyme and substrate were used per well:
The reaction cocktails were incubated at 30° C. for 60 minutes. The reaction was stopped with 50 μl of 2% (v/v) H3PO4, plates were aspirated and washed two times with 200 μl 0.9% (w/v) NaCl. Incorporation of ^33Pi was determined with a microplate scintillation counter (Microbeta, Wallac). All assays were performed with a BeckmanCoulter/SAGIANTM Core System.
Evaluation of raw data: The median value of the counts in column 1 (n=8) of each assay plate was defined as “low control”. This value reflects unspecific binding of radioactivity to the plate in the absence of a protein kinase but in the presence of the substrate. The median value of the counts in column 7 of each assay plate (n=8) was taken as the “high control”, i.e. full activity in the absence of any inhibitor. The difference between high and low control was taken as 100% activity. […]

T2 sequence (Q9NYV4 whole entry, the tested form may be a part): as the sequence (Q9NYV4 whole entry) above
T2 sequence (O75909 whole entry partner, the tested form may be a part): as the sequence (O75909 whole entry partner) above

pIC50	Compound
6.00 to 7.00	C=CC(=O)Nc1ccc2c(N3CC[C@@H](Nc4ncc(C#N)cn4)C3)nc(OCC(F)(F)F)nc2c1 [Example 32, (R)—N-(4-(3-((5-cyanopyrimidin-2-yl)amino)pyrrolidin-1-yl)-2-(2,2,2-trifluoroethoxy)quinazolin-7-yl)acrylamide]
≥ 7.00	CC#CC(=O)Nc1ccc2c(N3CC[C@@H](Nc4ncc(Br)cn4)C3)nccc2c1 [Example 33, (R)—N-(1-(3-((5-bromopyrimidin-2-yl)amino)pyrrolidin-1-yl)isoquinolin-6-yl)but-2-ynamide]
≥ 7.00	Cc1nc(N2CC[C@@H](Nc3ncc(Cl)c(-c4cnn5ccccc45)n3)C2)c2ccc(NC(=O)/C=C/CN(C)C)cc2n1 [Example 35, (R,E)—N-(4-(3-((5-chloro-4-(pyrazolo[1,5-a]pyridin-3-yl)pyrimidin-2-yl)amino)pyrrolidin-1-yl)-2-methylquinazolin-7-yl)-4-(dimethylamino)but-2-enamide]
≥ 7.00	C=CC(=O)N(C)c1ccc2c(N3CC[C@@H](Nc4ncc(C#N)cn4)C3)nccc2c1 [Example 36, (R)—N-(1-(3-((5-cyanopyrimidin-2-yl)amino)pyrrolidin-1-yl)isoquinolin-6-yl)-N-methylacrylamide]
